Results: paper PMC3816974 (Bioorganic & medicinal chemistry, 2013)

Tested on: M. tuberculosis H37Rv
Type: cell-based, Mycobacterium tuberculosis
Settings: for frequency of spontaneous resistance: M. tuberculosis H37Rv, 10× the MIC

| Compound | resistance range of mutants above the MIC level of the parental strain | frequency of spontaneous resistance | cross-resistance of mutants resistant to 44 and 52 |
| --- | --- | --- | --- |
| COc1ccc(C(=O)Nc2nc(-c3ccccn3)cs2)cc1 [Compound 44] | 2–8 fold | ~ 10^−5 | – |
| O=C(Nc1nc(-c2ccccn2)cs1)c1cccc(Br)c1 [Compound 52] | 2–8 fold | ~ 10^−5 | – |
| CCc1cc(C(N)=S)ccn1 [ethionamide, reference compound] | – | – | not to be cross-resistant |
